What all share (format): functional
In assay [1] the test system is Helicoverpa assulta. Description: Resistance factor, ratio of LD50 for sixth-instar larvae of Helicoverpa assulta YN3 to LD50 for sixth-instar larvae of Helicoverpa assulta at 1.8 to 183360 mg/l.
Assay [2] has as its system Helicoverpa assulta. Description: Insecticidal activity against sixth-instar larvae of Helicoverpa assulta FJ3 at 1.8 to 183360 mg/l after 48 hr by chi-squared analysis.
Assay [3] relates to Helicoverpa assulta. Nature of the assay: Insecticidal activity against sixth-instar larvae of Helicoverpa assulta YN4 at 1.8 to 183360 mg/l after 48 hr by chi-squared analysis.
In assay [4] the test system is Helicoverpa assulta. Nature of the assay: Insecticidal activity against sixth-instar larvae of Helicoverpa assulta YN1 at 1.8 to 183360 mg/l after 48 hr by chi-squared analysis.
Assay [5] has as its system Helicoverpa assulta. Nature of the assay: Insecticidal activity against sixth-instar larvae of Helicoverpa assulta YN8 at 1.8 to 183360 mg/l after 48 hr by chi-squared analysis.
For assay [6], the system named is Helicoverpa assulta. Description: Insecticidal activity against sixth-instar larvae of Helicoverpa assulta AH3 at 1.8 to 183360 mg/l after 48 hr by chi-squared analysis.
In assay [7] the test system is Helicoverpa assulta. Nature of the assay: Resistance factor, ratio of LD50 for sixth-instar larvae of Helicoverpa assulta GZ4 to LD50 for sixth-instar larvae of Helicoverpa assulta at 1.8 to 183360 mg/l.
Assay [8] deals with Helicoverpa assulta. Description: Resistance factor, ratio of LD50 for sixth-instar larvae of Helicoverpa assulta GZ5 to LD50 for sixth-instar larvae of Helicoverpa assulta at 1.8 to 183360 mg/l.
Assay [9] deals with Helicoverpa assulta. Description: Insecticidal activity against sixth-instar larvae of Helicoverpa assulta AH1 at 1.8 to 183360 mg/l after 48 hr by chi-squared analysis.
Assay [10] concerns Helicoverpa assulta. Description: Insecticidal activity against sixth-instar larvae of Helicoverpa assulta YN6 at 1.8 to 183360 mg/l after 48 hr by chi-squared analysis.
Assay [11] deals with Helicoverpa assulta. Description: Resistance factor, ratio of LD50 for sixth-instar larvae of Helicoverpa assulta AH3 to LD50 for sixth-instar larvae of Helicoverpa assulta at 1.8 to 183360 mg/l.
Assay [12] deals with Helicoverpa assulta. Nature of the assay: Resistance factor, ratio of LD50 for sixth-instar larvae of Helicoverpa assulta YN3 to LD50 for sixth-instar larvae of Helicoverpa assulta at 21 to 3390 mg/l.
Assay [13] relates to Helicoverpa assulta. Description: Resistance factor, ratio of LD50 for sixth-instar larvae of Helicoverpa assulta AH2 to LD50 for sixth-instar larvae of Helicoverpa assulta at 21 to 3390 mg/l.
The subject of assay [14] is Helicoverpa assulta. Nature of the assay: Insecticidal activity against sixth-instar larvae of Helicoverpa assulta HN2 at 21 to 3390 mg/l after 48 hr by chi-squared analysis.
Assay [15] concerns Helicoverpa assulta. Description: Insecticidal activity against sixth-instar larvae of Helicoverpa assulta FJ1 at 21 to 3390 mg/l after 48 hr by chi-squared analysis.
The test system of assay [16] is Helicoverpa assulta. Description: Resistance factor, ratio of LD50 for sixth-instar larvae of Helicoverpa assulta YN7 to LD50 for sixth-instar larvae of Helicoverpa assulta at 21 to 3390 mg/l.
Assay [17] has as its system Helicoverpa assulta. Nature of the assay: Resistance factor, ratio of LD50 for sixth-instar larvae of Helicoverpa assulta GZ4 to LD50 for sixth-instar larvae of Helicoverpa assulta at 21 to 3390 mg/l.
Assay [18] has as its system Helicoverpa assulta. Nature of the assay: Insecticidal activity against sixth-instar larvae of Helicoverpa assulta GZ3 at 21 to 3390 mg/l after 48 hr by chi-squared analysis.
Assay [19] relates to Helicoverpa assulta. Description: Insecticidal activity against sixth-instar larvae of Helicoverpa assulta YN6 at 21 to 3390 mg/l after 48 hr by chi-squared analysis.
The subject of assay [20] is Helicoverpa assulta. Nature of the assay: Insecticidal activity against sixth-instar larvae of Helicoverpa assulta HN1 at 21 to 3390 mg/l after 48 hr by chi-squared analysis.
For assay [21], the system named is Helicoverpa assulta. Description: Insecticidal activity against sixth-instar larvae of Helicoverpa assulta SD2 at 21 to 3390 mg/l after 48 hr by chi-squared analysis.
Assay [22] concerns Helicoverpa assulta. Description: Insecticidal activity against sixth-instar larvae of Helicoverpa assulta YN4 at 21 to 3390 mg/l after 48 hr by chi-squared analysis.
Assay [23] concerns Helicoverpa assulta. Nature of the assay: Insecticidal activity against sixth-instar larvae of Helicoverpa assulta SD1 at 21 to 3390 mg/l after 48 hr by chi-squared analysis.
Assay [24] deals with Helicoverpa assulta. Description: Resistance factor, ratio of LD50 for sixth-instar larvae of Helicoverpa assulta GZ5 to LD50 for sixth-instar larvae of Helicoverpa assulta at 21 to 3390 mg/l.
The subject of assay [25] is Helicoverpa assulta. Nature of the assay: Resistance factor, ratio of LD50 for sixth-instar larvae of Helicoverpa assulta HB2 to LD50 for sixth-instar larvae of Helicoverpa assulta at 39 to 12630 mg/l.
In assay [26] the test system is Helicoverpa assulta. Nature of the assay: Resistance factor, ratio of LD50 for sixth-instar larvae of Helicoverpa assulta AH1 to LD50 for sixth-instar larvae of Helicoverpa assulta at 39 to 12630 mg/l.
For assay [27], the system named is Helicoverpa assulta. Description: Insecticidal activity against sixth-instar larvae of Helicoverpa assulta SD2 at 39 to 12630 mg/l after 48 hr by chi-squared analysis.
The test system of assay [28] is Helicoverpa assulta. Nature of the assay: Resistance factor, ratio of LD50 for sixth-instar larvae of Helicoverpa assulta YN8 to LD50 for sixth-instar larvae of Helicoverpa assulta at 39 to 12630 mg/l.
For assay [29], the system named is Helicoverpa assulta. Description: Resistance factor, ratio of LD50 for sixth-instar larvae of Helicoverpa assulta HN1 to LD50 for sixth-instar larvae of Helicoverpa assulta at 39 to 12630 mg/l.
The subject of assay [30] is Helicoverpa assulta. Description: Resistance factor, ratio of LD50 for sixth-instar larvae of Helicoverpa assulta GZ1 to LD50 for sixth-instar larvae of Helicoverpa assulta at 39 to 12630 mg/l.
The subject of assay [31] is Helicoverpa assulta. Description: Insecticidal activity against sixth-instar larvae of Helicoverpa assulta GZ5 at 39 to 12630 mg/l after 48 hr by chi-squared analysis.
For assay [32], the system named is Helicoverpa assulta. Description: Insecticidal activity against sixth-instar larvae of Helicoverpa assulta FJ3 at 39 to 12630 mg/l after 48 hr by chi-squared analysis.
In assay [33] the test system is Helicoverpa assulta. Description: Resistance factor, ratio of LD50 for sixth-instar larvae of Helicoverpa assulta GZ4 to LD50 for sixth-instar larvae of Helicoverpa assulta at 39 to 12630 mg/l.
For assay [34], the system named is Helicoverpa assulta. Description: Insecticidal activity against sixth-instar larvae of Helicoverpa assulta YN1 at 39 to 12630 mg/l after 48 hr by chi-squared analysis.
In assay [35] the test system is Helicoverpa assulta. Nature of the assay: Insecticidal activity against sixth-instar larvae of Helicoverpa assulta HB1 at 39 to 12630 mg/l after 48 hr by chi-squared analysis.

For `CC(C)C(C(=O)OC(C#N)c1cccc(Oc2ccccc2)c1)c1ccc(Cl)cc1` (stereo not given) [FENVALERATE], the Ratio in the assay with Helicoverpa assulta [1] worked out at 1403; in the assay on Helicoverpa assulta [7], 347; in the assay with Helicoverpa assulta [8], 189; in the assay on Helicoverpa assulta [11], 1546. The LD90 stood at 3.39 µg/g with Helicoverpa assulta [2]; 4847 µg/g in the assay on Helicoverpa assulta [3]; 4059 µg/g in the assay on Helicoverpa assulta [4]; 9100 µg/g with Helicoverpa assulta [5]; 470 µg/g in the assay with Helicoverpa assulta [6]; 833 µg/g in the assay on Helicoverpa assulta [9]. Further, the LD90 in the assay on Helicoverpa assulta [10] is 1467 µg/g. In addition, the LD50 in the assay on Helicoverpa assulta [2] (Helicoverpa assulta, FJ3, 48 h) was found to be 1.47 mg/kg; in the assay on Helicoverpa assulta [3] (Helicoverpa assulta, YN4, 48 h), 1500 mg/kg; with Helicoverpa assulta [4] (Helicoverpa assulta, YN1, 48 h), 1360 mg/kg; in the assay on Helicoverpa assulta [5] (Helicoverpa assulta, YN8, 48 h) it was 2860 mg/kg; in the assay on Helicoverpa assulta [6] (Helicoverpa assulta, AH3, 48 h), 251 mg/kg; in the assay on Helicoverpa assulta [9] (Helicoverpa assulta, AH1, 48 h), 333 mg/kg. In the assay with Helicoverpa assulta [10] (Helicoverpa assulta, YN6, 48 h), this compound gave an LD50 of 667 mg/kg.

For `CNC(=O)ON=C(C)SC` [METHOMYL], the Ratio worked out at 23.1 in the assay on Helicoverpa assulta [12]; 15.3 with Helicoverpa assulta [13]; 27 in the assay on Helicoverpa assulta [16]; 11.5 with Helicoverpa assulta [17]; 14.5 in the assay with Helicoverpa assulta [24]. Moreover, the LD90 came out at 24.2 µg/g in the assay on Helicoverpa assulta [14]; 67.8 µg/g in the assay on Helicoverpa assulta [15]; 66.7 µg/g in the assay on Helicoverpa assulta [18]; 66.2 µg/g in the assay on Helicoverpa assulta [19]; 34 µg/g with Helicoverpa assulta [20]; 41.8 µg/g in the assay with Helicoverpa assulta [21]. Moreover, the LD90 in the assay with Helicoverpa assulta [22] came out at 62.2 µg/g; with Helicoverpa assulta [23], 19.5 µg/g. In addition, the LD50 in the assay on Helicoverpa assulta [14] (Helicoverpa assulta, HN2, 48 h) amounted to 4.24 mg/kg; in the assay on Helicoverpa assulta [15] (Helicoverpa assulta, FJ1, 48 h) it was 21.1 mg/kg; in the assay on Helicoverpa assulta [18] (Helicoverpa assulta, GZ3, 48 h) it was 20.8 mg/kg; in the assay with Helicoverpa assulta [19] (Helicoverpa assulta, YN6, 48 h) it was 19.7 mg/kg; with Helicoverpa assulta [20] (Helicoverpa assulta, HN1, 48 h), 6.48 mg/kg; in the assay on Helicoverpa assulta [21] (Helicoverpa assulta, SD2, 48 h), 8.92 mg/kg. For the same compound, the LD50 with Helicoverpa assulta [22] (Helicoverpa assulta, YN4, 48 h) amounted to 16.7 mg/kg; in the assay with Helicoverpa assulta [23] (Helicoverpa assulta, SD1, 48 h) it was 5.68 mg/kg.

For `CCOP(=S)(OCC)O/N=C(\C#N)c1ccccc1` [PHOXIM], the Ratio in the assay on Helicoverpa assulta [25] turned out to be 5.04; in the assay on Helicoverpa assulta [26] it was 50.8; with Helicoverpa assulta [28], 17.2; with Helicoverpa assulta [29] it was 4.5; in the assay with Helicoverpa assulta [30], 14.3; with Helicoverpa assulta [33] it was 7.89. In addition, the LD90 came out at 50.5 µg/g in the assay on Helicoverpa assulta [27]; 33.7 µg/g in the assay with Helicoverpa assulta [31]; 36.9 µg/g in the assay on Helicoverpa assulta [32]; 57.3 µg/g in the assay on Helicoverpa assulta [34]; 18.8 µg/g with Helicoverpa assulta [35]. The LD50 is 17.2 mg/kg with Helicoverpa assulta [27] (Helicoverpa assulta, SD2, 48 h); 16.6 mg/kg in the assay on Helicoverpa assulta [31] (Helicoverpa assulta, GZ5, 48 h); 19 mg/kg in the assay on Helicoverpa assulta [32] (Helicoverpa assulta, FJ3, 48 h); 20.4 mg/kg with Helicoverpa assulta [34] (Helicoverpa assulta, YN1, 48 h); 8.16 mg/kg in the assay on Helicoverpa assulta [35] (Helicoverpa assulta, HB1, 48 h).

Values taken from ChEMBL document CHEMBL3046781, “Resistance of Helicoverpa assulta (Guenée) (Lepidoptera: Noctuidae) to fenvalerate, phoxim and methomyl in China” (2009).
